Reference: paper PMC10046961, “High-Throughput Screening Assay for Detecting Drug-Induced Changes in Synchronized Neuronal Oscillations and Potential Seizure Risk Based on Ca^2+ Fluorescence Measurements in Human Induced Pluripotent Stem Cell (hiPSC)-Derived Neuronal 2D and 3D Cultures” (Cells, 2023)
Read-outs that look alike come from different tables or passages of the source.

Assays:
[1] = test system: hiPSC-derived neurons co-cultured with human primary astrocytes in 3D; assay: Ca2+ transient oscillation assay (FDSS), 3D spheroids; assay type: cell-based; details: 60 min
Procedure, shortened: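 Fura-2 fluorescence was read twice for 20 min each: a baseline 10 min after 0.04% DMSO, and again 60 min after compound addition at nominal final concentration. The 3D co-cultures (1:1 hiPSC neurons from a donor and human astrocytes, 8000 each) matured 5 weeks in BrainPhys medium after a 1-week differentiation.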

[2] = test system: hiPSC-derived neurons co-cultured with human primary astrocytes in 2D; assay: Ca2+ transient oscillation assay (FDSS), 2D co-culture; assay type: cell-based; details: for effect on peak number / Ca2+ neuronal oscillations, in words: 2D format; for activation at 3.7 µM / activation at 11.11 µM / activation at 33.33 µM / activation at 100 µM / activation at 0.37 µM / activation at 1.11 µM / activation at 3.33 µM / activation at 10 µM: Homo sapiens, 1 h, 60 min
Procedure, shortened: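 Cultures were 10,000 CW50065 hiPSC excitatory neurons plus 2500 primary human astrocytes per well. Recordings used Cal-520 dye in HBSS/HEPES/glucose at 37 °C, with a 470/540 nm read at 2 Hz. Oscillations were stabilized with 0.04% DMSO, read for 20 min, then read again 60 min after compound addition (final DMSO 0.1%).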

[3] = ref PharmaPendium, cited from earlier work
[4] = read-out: Area under the curve - 2D Mean
[5] = read-out: Peak amplitude - 2D Mean
[6] = read-out: Peak-to-peak interval - 2D Mean
[7] = Table 1, peak plasma concentration in men, free therapeutic Cmax
[8] = Table 2, highest plasma concentration in humans after the therapeutic dose

## O=C1NC(=O)C(c2ccccc2)(c2ccccc2)N1 [Phenytoin]
[1]; 3.7 µM
  Area under the curve - 3D Mean: 132.1 % change from baseline
  Peak Number—3D Mean: 1.4 % change from baseline
  Peak amplitude - 3D Mean: 111.5 % change from baseline
  Peak width - 3D Mean: 7.4 % change from baseline
  Peak-to-peak interval - 3D Mean: 2.9 % change from baseline
[1]; 11.11 µM
  Area under the curve - 3D Mean: 177.0 % change from baseline
  Peak Number—3D Mean: −11.8 % change from baseline
  Peak amplitude - 3D Mean: 110.4 % change from baseline
  Peak width - 3D Mean: 29.4 % change from baseline
  Peak-to-peak interval - 3D Mean: 8.2 % change from baseline
[1]; 33.33 µM
  Area under the curve - 3D Mean: 199.3 % change from baseline
  Peak Number—3D Mean: −14.6 % change from baseline
  Peak amplitude - 3D Mean: 91.2 % change from baseline
  Peak width - 3D Mean: 47.9 % change from baseline
  Peak-to-peak interval - 3D Mean: 17.7 % change from baseline
[1]; 100 µM
  Area under the curve - 3D Mean: 198.2 % change from baseline
  Peak Number—3D Mean: −9.9 % change from baseline
  Peak amplitude - 3D Mean: 88.4 % change from baseline
  Peak width - 3D Mean: 50.5 % change from baseline
  Peak-to-peak interval - 3D Mean: 6.6 % change from baseline
[2]
  effect on peak number / Ca2+ neuronal oscillations, in words: significantly reduced peak number
[2]; [4]
  activation at 3.7 µM: 33.2%
  activation at 11.11 µM: 27.5%
  activation at 33.33 µM: 15.8%
  activation at 100 µM: 33.3%
[2]; read-out: Peak Number—2D Mean
  activation at 3.7 µM: -33.5%
  activation at 11.11 µM: -15.2%
  activation at 33.33 µM: -51.2%
  activation at 100 µM: -27.5%
[2]; [5]
  activation at 3.7 µM: 7.3%
  activation at 11.11 µM: -0.2%
  activation at 33.33 µM: -3%
  activation at 100 µM: 0.2%
[2]; read-out: Peak width - 2D Mean
  activation at 3.7 µM: 27.2%
  activation at 11.11 µM: 31.5%
  activation at 33.33 µM: 17%
  activation at 100 µM: 34.7%
[2]; [6]
  activation at 3.7 µM: 46.3%
  activation at 11.11 µM: 22.2%
  activation at 33.33 µM: 89%
  activation at 100 µM: 44.5%
[3]; [7]
  Free Cmax: 4 to 15 µM
[3]; [8]
  Free Cmax: 4 to 15 µM

## CC[C@@H]1C(=O)OC[C@@H]1Cc1cncn1C [Pilocarpine]
[1]; 0.37 µM
  Area under the curve - 3D Mean: 141.5 % change from baseline
  Peak Number—3D Mean: 16.7 % change from baseline
  Peak amplitude - 3D Mean: 115.6 % change from baseline
  Peak width - 3D Mean: 6.3 % change from baseline
  Peak-to-peak interval - 3D Mean: −10.1 % change from baseline
[1]; 1.11 µM
  Area under the curve - 3D Mean: 173.5 % change from baseline
  Peak Number—3D Mean: 23.9 % change from baseline
  Peak amplitude - 3D Mean: 145.8 % change from baseline
  Peak width - 3D Mean: 6.7 % change from baseline
  Peak-to-peak interval - 3D Mean: −10.0 % change from baseline
[1]; 3.33 µM
  Area under the curve - 3D Mean: 168.7 % change from baseline
  Peak Number—3D Mean: 12.9 % change from baseline
  Peak amplitude - 3D Mean: 135.3 % change from baseline
  Peak width - 3D Mean: 10.2 % change from baseline
  Peak-to-peak interval - 3D Mean: −3.3 % change from baseline
[1]; 10 µM
  Area under the curve - 3D Mean: 145.2 % change from baseline
  Peak Number—3D Mean: 23.1 % change from baseline
  Peak amplitude - 3D Mean: 122.5 % change from baseline
  Peak width - 3D Mean: 7.0 % change from baseline
  Peak-to-peak interval - 3D Mean: −12.6 % change from baseline
[2]
  effect on peak number / Ca2+ neuronal oscillations, in words: significantly increased peak number
[2]; [4]
  activation at 0.37 µM: 26.7%
  activation at 1.11 µM: 38.8%
  activation at 3.33 µM: 26.7%
  activation at 10 µM: 22.8%
[2]; read-out: Peak Number—2D Mean
  activation at 0.37 µM: 11.5%
  activation at 1.11 µM: 8.3%
  activation at 3.33 µM: 34.3%
  activation at 10 µM: -19.2%
[2]; [5]
  activation at 0.37 µM: 9.3%
  activation at 1.11 µM: 8%
  activation at 3.33 µM: 5.8%
  activation at 10 µM: 3.8%
[2]; read-out: Peak width - 2D Mean
  activation at 0.37 µM: 19.2%
  activation at 1.11 µM: 35.7%
  activation at 3.33 µM: 23.2%
  activation at 10 µM: 23%
[2]; [6]
  activation at 0.37 µM: 1.3%
  activation at 1.11 µM: 5.8%
  activation at 3.33 µM: -9.2%
  activation at 10 µM: 29.8%
[3]; [7]
  Free Cmax: 0.03 to 0.55 µM
[3]; [8]
  Free Cmax: 0.03 to 0.55 µM

## CCN(CC)CCCC(C)Nc1c2ccc(Cl)cc2nc2ccc(OC)cc12 (centres unmarked) [Quinacrine, quinacrine]
[1]; 0.37 µM
  Area under the curve - 3D Mean: 123.5 % change from baseline
  Peak Number—3D Mean: 3.2 % change from baseline
  Peak amplitude - 3D Mean: 113.4 % change from baseline
  Peak width - 3D Mean: −1.8 % change from baseline
  Peak-to-peak interval - 3D Mean: −0.7 % change from baseline
[1]; 1.11 µM
  Area under the curve - 3D Mean: 149.1 % change from baseline
  Peak Number—3D Mean: 0.4 % change from baseline
  Peak amplitude - 3D Mean: 128.3 % change from baseline
  Peak width - 3D Mean: 4.2 % change from baseline
  Peak-to-peak interval - 3D Mean: 6.2 % change from baseline
[1]; 3.33 µM
  Area under the curve - 3D Mean: 139.1 % change from baseline
  Peak Number—3D Mean: 14.1 % change from baseline
  Peak amplitude - 3D Mean: 108.9 % change from baseline
  Peak width - 3D Mean: 10.6 % change from baseline
  Peak-to-peak interval - 3D Mean: −5.5 % change from baseline
[1]; 10 µM
  Area under the curve - 3D Mean: 128.2 % change from baseline
  Peak Number—3D Mean: 12.5 % change from baseline
  Peak amplitude - 3D Mean: 108.3 % change from baseline
  Peak width - 3D Mean: 9.5 % change from baseline
  Peak-to-peak interval - 3D Mean: −9.8 % change from baseline
[2]; [4]
  activation at 0.37 µM: 5.3%
  activation at 1.11 µM: 11.2%
  activation at 3.33 µM: -13.8%
  activation at 10 µM: -84.7%
[2]; read-out: Peak Number—2D Mean
  activation at 0.37 µM: -2.7%
  activation at 1.11 µM: -2.8%
  activation at 3.33 µM: -11%
  activation at 10 µM: -92.2%
[2]; [5]
  activation at 0.37 µM: 1.8%
  activation at 1.11 µM: 1.2%
  activation at 3.33 µM: -7.8%
  activation at 10 µM: -78%
[2]; read-out: Peak width - 2D Mean
  activation at 0.37 µM: 2.8%
  activation at 1.11 µM: 10.7%
  activation at 3.33 µM: -12.8%
  activation at 10 µM: -84.3%
[2]; [6]
  activation at 0.37 µM: 7%
  activation at 1.11 µM: -4%
  activation at 3.33 µM: 40.2%
  activation at 10 µM: -18.2%
[3]; [7]
  Free Cmax: 0.05 µM
[3]; [8]
  Free Cmax: 0.05 µM
